Data on one compound can be found in patent publication USRE42890E1, “Furazanobenzimidazoles” (Basilea Pharmaceutica AG, priority 2003, dated 2011).

For one series, the system named is MRC5. In words: MTS proliferation assay, MRC5. Format: cell-based. The note with it: Homo sapiens; MRC5, 72 h incubation; read-out: MTS proliferation assay IC 50 MRC5. The procedure, abridged:
(§1)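 Cells in RPMI-1640 with 5% or 10% FCS, 2-mercaptoethanol and glutamine were seeded 24 h before treatment with compound at final 10, 3, 1 and 0.3 μM. After 72 h at 37° C and 7.5% CO2, MTS reagent was added for 3 h and absorbance read at 492 nm.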

The subject of another series is Jurkat. In words: MTS proliferation assay, Jurkat. Format: cell-based, human. The following applies: Homo sapiens, 72 h incubation, read-out: MTS proliferation assay IC 50 Jurkat. The procedure, abridged:
(§2)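 Cells were seeded 24 h before treatment and exposed to compound at 10, 3, 1 and 0.3 μM final for 72 h at 37 °C, 7.5% CO2 in RPMI-1640 with 5% or 10% FCS. Viability was read by MTS reagent (3 h) as absorbance at 492 nm.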

The subject of series [1] is adherent cells or suspension cells. In words: Hoechst 33342 nuclear staining (fraction of apoptotic nuclei). Format: cell-based. Also on record: key: 0 relating to no activity; 1 relating to weak activity comprising less than 70% of the cells; score 2 relating to strong activity comprising more than 70% of the cells.
The next series has as its system HT1080. In words: MTS proliferation assay, HT1080. Format: cell-based, human. The following applies: Homo sapiens, HT-1080; HT1080, 72 h incubation; read-out: MTS proliferation assay IC 50 HT1080. In short, it runs like this:
as §2
Background: Tetrazolium assays rely on reduction of a dye to a coloured formazan, in cell work by metabolically active cells.

A further series deals with HeLa. In words: MTS proliferation assay, HeLa. The series is classed as cell-based, human. The note with it: Homo sapiens, 72 h incubation, read-out: MTS proliferation assay IC 50 HeLa. In short, it runs like this:
as §2

The test system of the next series is Jily. In words: MTS proliferation assay, Jily. Format: cell-based. The note with it: 72 h incubation, read-out: MTS proliferation assay IC 50 Jily. In short, it runs like this:
as §1

pIC50: −log10 of the molar value.

The term melting point denotes the temperature, or range, at which the solid turns liquid. As for `Nc1nonc1-c1nc2ccccc2n1CC(=O)c1ccc(Cl)c([N+](=O)[O-])c1` [Example 66, 4-[1-(4-Chloro-3-nitrophenacyl)-1H-benzimidazol-2-yl]-furazan-3-ylamine], the melting point was 198 to 200 °C. The pIC50 in the series on MRC5 is 6.00 to 7.00. The pIC50 with Jurkat was 7.00 to 8.00. In addition, the “Hoechst 33342 nuclear staining score” value in series [1] (H460, conc 0.01 μm) is recorded as 0. Moreover, the “Hoechst 33342 nuclear staining score” value in series [1] (H460, conc 0.1 μm) came to 0. For the same compound, the “Hoechst 33342 nuclear staining score” value in series [1] (H460, conc 1 μm) is 2 (score 2 relating to strong activity comprising more than 70% of the cells). Besides, in series [1] (HeLa, conc 0.01 μm), the “Hoechst 33342 nuclear staining score” value came to 0. In addition, in series [1] (HeLa, conc 0.1 μm), the “Hoechst 33342 nuclear staining score” value was determined as 0. Further, the “Hoechst 33342 nuclear staining score” value in series [1] (HeLa, conc 1 μm) is reported as 2 (score 2 relating to strong activity comprising more than 70% of the cells). For the same compound, the “Hoechst 33342 nuclear staining score” value in series [1] (Jily, conc 0.01 μm) worked out at 0. Besides, the “Hoechst 33342 nuclear staining score” value in series [1] (Jily, conc 0.1 μm) stood at 0. For the same compound, in series [1] (Jily, conc 1 μm), the “Hoechst 33342 nuclear staining score” value is listed as 2 (score 2 relating to strong activity comprising more than 70% of the cells). Besides, the “Hoechst 33342 nuclear staining score” value in series [1] (Jurkat, conc 0.01 μm) worked out at 0. Further, the “Hoechst 33342 nuclear staining score” value in series [1] (Jurkat, conc 0.1 μm) is reported as 1 (1 relating to weak activity comprising less than 70% of the cells). Besides, in series [1] (Jurkat, conc 1 μm), the “Hoechst 33342 nuclear staining score” value is 2 (score 2 relating to strong activity comprising more than 70% of the cells). Also, the “Hoechst 33342 nuclear staining score” value in series [1] (MRC5, conc 0.01 μm) stood at 0. For the same compound, in series [1] (MRC5, conc 0.1 μm), the “Hoechst 33342 nuclear staining score” value stood at 0. Moreover, in series [1] (MRC5, conc 1 μm), the “Hoechst 33342 nuclear staining score” value is 1 (1 relating to weak activity comprising less than 70% of the cells). Besides, in series [1] (PBLs, conc 0.01 μm), the “Hoechst 33342 nuclear staining score” value was 0. Further, in series [1] (PBLs, conc 0.1 μm), the “Hoechst 33342 nuclear staining score” value was 0. Further, the “Hoechst 33342 nuclear staining score” value in series [1] (PBLs, conc 1 μm) came to 0. The pIC50 in the series on HT1080 is 6.00 to 7.00. Besides, the pIC50 in the series with HeLa is 6.00 to 7.00. Also, the pIC50 in the series with Jily is 6.00 to 7.00.
